Bounds are passed on as bounds.

The test system of data set [1] is Staphylococcus aureus (ATCC strain #6538). Briefly: modified Kirby Bauer susceptibility model, zone of inhibition around antibiotic containing HA disk. As to conditions: for Zone of Inhibition (mm): antibiotic absorbed into precipitated crystalline HA coating, Mueller-Hinton agar, 24 hr at 37° C. Format: cell-based. The procedure:
1.2 Grams of tobramycin sulfate was dissolved in 12 milliliters of sterile deionized water (100 mg/ml). […] Ten (10) μl of solution was pipetted onto the surface of each of the […] coated disks and allowed to dry. […] The test coupons were then placed into a buffered saline at 37° C. immediately after the absorption process was completed. […] In the well-known Kirby Bauer Susceptibility Model test organisms were propagated and handled in accordance with ATCC recommendations for broth media, agar, and incubation specifications. […] Each seeded plate was challenged with both an antibiotic containing HA disk and a non-antibiotic containing HA disk, which served as a control. Samples were tested in duplicate (i.e., two plates per organism). Following incubation for 24 hr. at 37° C., the plates were examined for zones of inhibition around the disks. The zone of inhibition is defined as the distance between the test disk and the edge of bacterial growth. It is common for a hazy, or “ghost” zone to exist between the areas of complete inhibition and full bacterial growth. This “ghost” zone is the result of partial inhibition and is not included in the measurement of the zone of inhibition.

Data set [2] in a line: precipitation of OP-1 protein in solution. The class given is physicochemical.
Data set [3] in a line: binding of [125I]OP-1 to PA coated titanium disks (scintillation counting). Conditions: FIG. 3 time course. The procedure:
Materials and Methods—Preparation of implant test articles: Titanium alloy (Ti6A14V) disks/coupons 5 mm in diameter and 3 mm thick were coated both sides with PA coating using the method of Example I. The thickness of the coating surface was determined by SEM to be nominally 20 μm to 50 μm.
Determination of the binding capacity of OP-1® Osteogenic graft material: A pre-mixed blend of unlabelled OP-1® Osteogenic graft material with iodine [^125I] for tracking purposes was used. The OP-1® Osteogenic graft material in a lactose solution was pipetted on PA coated disks in triplicate. A range of OP-1® Osteogenic graft material incubation time and concentration treatment was applied to determine the time-course and binding capacity of the graft material on the PA coated disk. Following the incubation, each coupon was washed with lactose solution and the washes were collected in a scintillation vial. 10 ml of the scintillation cocktail was added to each test article and wash sample and the scintillation counts were measured in a liquid scintillation counter (LSC) to calculate the amount of OP-1® Osteogenic graft material bound to the PA coated disk.

Data set [4] concerns adductor muscles (intramuscular pouch). Format: in vivo, Long-Evans male rats. An excerpt:
In-vivo study of OP-1® Osteogenic graft material coated implants: Freshly reconstituted OP-1® Osteogenic graft material in lactose solution was loaded onto each surface of the PA coated disk using sterile pipettes. The solution evenly spaced across the dry surface and was completely absorbed. Sixteen Long-Evans male rats with body weight 300-390 g were used in the study. The animals were anesthetized and an incision was made on the medial thigh to prepare intramuscular pouch within the adductor muscles for placement of the implant articles, on both contra-lateral limbs. A total of 32 implants were divided into 4 groups: (A) titanium disks; (B) titanium disks coated with PA, (C) titanium disks coated with PA plus OP-1® Osteogenic graft material (40 μg), (D) OP-1® Osteogenic graft material solution (40 μg). For Group C, the OP-1® Osteogenic graft material solution was directly pipeted on each Ti disk immediately before implantation. The solution was absorbed within 1 minute. For Group D, OP-1® Osteogenic graft material solution was dropped into the muscular pouch. The same amount of identical carrier solution for OP-1® Osteogenic graft material was loaded on disks of Groups A and B. After implantation, the pouch was closed with 3-0 chromic sutures, and the wound was closed in layers. The rats were housed individually and allowed unrestricted activity immediately after […]. All the animals were sacrificed 4 weeks postoperatively. The complete limb was disarticulated from hip joint and x-rayed. The implants with their surrounding tissues were retrieved. All implants were processed for undecalcified thin section histology using EXAKT technique. The slides were stained with Stevenel's blue/van Gieson's picrofuchsin method for histological analysis. Bone was stained in red color and fibrous tissue in blue. Half of the specimens of Group D were decalcified and embedded in paraffin. Sections were stained with hematoxylin and eosin.

Take `CN[C@H](CC(C)C)C(=O)N[C@H]1C(=O)N[C@@H](CC(N)=O)C(=O)N[C@H]2C(=O)N[C@H]3C(=O)N[C@H](C(=O)N[C@H](C(=O)O)c4cc(O)cc(O)c4-c4cc3ccc4O)[C@H](O)c3ccc(c(Cl)c3)Oc3cc2cc(c3O[C@@H]2O[C@H](CO)[C@@H](O)[C@H](O)[C@H]2O[C@H]2C[C@](C)(N)[C@H](O)[C@H](C)O2)Oc2ccc(cc2Cl)[C@H]1O` [Vancomycin]: in data set [1], the “Zone of Inhibition (mm)” value was 10.5 mm. With Penicillin [Penicillin Procaine], the “Zone of Inhibition (mm)” value in data set [1] was determined as 26.5 mm. Still for that read-out and setting: the same measure for `O=C(O)c1cn(C2CC2)c2cc(N3CCNCC3)c(F)cc2c1=O` [Ciprofloxacin]: 15.5 mm. Regarding Penicillin [Penicillin Potassium Salt], in data set [1], the “Zone of Inhibition (mm)” value amounted to 29 mm. In the case of `CC(=O)OCC1=C(C(=O)O)N2C(=O)[C@@H](NC(=O)CCC[C@@H](N)C(=O)O)[C@H]2SC1` [Cephalosporin C], the “Zone of Inhibition (mm)” value in data set [1] is given as 11.5 mm.

In the case of `NC[C@H]1O[C@H](O[C@H]2[C@H](O)[C@@H](O[C@H]3O[C@H](CO)[C@@H](O)[C@H](N)[C@H]3O)[C@H](N)C[C@@H]2N)[C@H](N)C[C@@H]1O` [Tobramycin], the “biological activity of released antibiotic” value in data set [1] (after absorption into the hydroxyapatite structure) is reported as “remained biologically active”. Also, the “Zone of Inhibition (mm)” value in data set [1] worked out at 10 mm. Take `CC1=C(C(=O)O)N2C(=O)[C@@H](NC(=O)[C@H](N)c3ccccc3)[C@H]2SC1` [Cephalexin]: the “Zone of Inhibition (mm)” value in data set [1] turned out to be 19 mm. As for `Cn1nnnc1SCC1=C(C(=O)O)N2C(=O)[C@@H](NC(=O)[C@H](O)c3ccccc3)[C@H]2SC1` [Cefamandole], in data set [1], the “Zone of Inhibition (mm)” value was found to be 25 mm. Penicillin [Penicillin Benzathine]: the “Zone of Inhibition (mm)” value in data set [1] turned out to be 22.5 mm. Take Penicillin [Penicillin Sodium Salt]: in data set [1], the “Zone of Inhibition (mm)” value amounted to 28 mm. Consider `N[C@@H](C(=O)N[C@@H]1C(=O)N2C(C(=O)O)=C(Cl)CS[C@H]12)c1ccccc1` [Cefaclor], for which the “Zone of Inhibition (mm)” value in data set [1] is recorded as 20.5 mm.

B1: OP-1® Osteogenic graft material: Osteogenic protein-1, a 36 kD homodimer protein in the TGI-β super-family; a bone morphogenic protein (protein, UniProt P18075 293-431, looked up)
Bone morphogenetic protein 7: STGSKQRSQNRSKTPKNQEALRMANVAENSSSDQRQACKKHELYVSFRDLGWQDWIIAPEGYAAYYCEGECAFPLNSYMNATNHAIVQTLVHFINPETVPKPCCAPTQLNAISVLYFDDSSNVILKKYRNMVVRACGCH
modifications: graft material
notes: Osteogenic protein-1, a 36 kD homodimer protein in the TGI-β super-family; a bone morphogenic protein
Consider B1, for which, in data set [2], the “concentration over which protein spontaneously precipitates” value is recorded as “over 5 mg/mL”. In addition, the “time after loading at which maximal binding to PA is achieved” value in data set [3] was determined as 5 h. In data set [4] (Group C: titanium disks coated with PA plus OP-1 (40 μg), radiographic, 4 weeks), the “extension of new bone surrounding the disks” value is given as not above 10 mm. The “inflammation in the specimens” value in data set [4] (rat, in vivo) was “no inflammation”. Further, the “incidence of bone formation” value in data set [4] (the two groups treated with OP-1 (40 μg; Groups C and D), 4 weeks) was determined as 100%.

The values above are taken from patent publication US20050169964A1, “Antibiotic calcium phosphate coating” (Howmedica Osteonics Corp., priority 2001, published 2005).
